Like-named read-outs stand apart in the source and are kept apart here. Each block holds one compound with its values, some of them ahead of it. *1 amine or outer side, *2 acyl side, *3 side chain or, on linkers, in order; H or OH if unused. Where a SMILES comes first, the peptide text is derived from it. Bridges are numbered along the chain shown (N, C = ends). [ ]: non-standard residue; d: D form. The star is where a group is joined. X5 = NC(=O)[C@H](CCCCNC(=O)CN1CCN(CC(=O)O)CCN(CC(=O)O)CCN(CC(=O)O)CC1)NC(=O)CCC(=O)NCCCOCCOCCOCCCN*; X13 = O=C(CN1CCN2CCN3CCN(CC1)CC(=O)[O][Lu]([O]C(=O)C2)[O]C(=O)C3)NCCCOCCOCCOCCCN*; DOTA(Lu) = O=C1CN2CCN3CCN(CC(=O)*)CCN(CC2)CC(=O)[O][Lu]([O]1)[O]C(=O)C3; Pro(trans-4-NH2) = O=C([C@@H]1C[C@@H](N[*:3])CN1[*:1])[*:2]; DOTA = O=C(O)CN1CCN(CC(=O)O)CCN(CC(=O)*)CCN(CC(=O)O)CC1; Trp(5-Cl) = N[C@@H](Cc1c[nH]c2ccc(Cl)cc12)C(=O)O; Propanoyl(3-(4-F-phenyl)) = O=C(CCc1ccc(F)cc1)*; Pyridine(2,6-diCH2) = c1cc(C[*:1])nc(C[*:2])c1; X22 = O=C([C@H](Cc1cccc(Cl)c1Cl)N[*:1])[*:2]; Phe(2-Cl) = N[C@@H](Cc1ccccc1Cl)C(=O)O; mXylylene = c1cc(C[*:1])cc(C[*:2])c1; X7 = c1cc(CSCCN[*:2])cc(C[*:1])c1; Hyp = O=C(O)[C@@H]1C[C@@H](O)CN1; X1 = O=C(CN1CCC(N[*:1])CC1)[*:2]; Suc = O=C(CCC(=O)[*:2])[*:1]; Thp = NC1(C(=O)O)CCOCC1; Aib = CC(C)(N)C(=O)O
Molecular target: T1, GIPR (CHO-K1-hGIPR cells) (Homo sapiens, UniProt P48546)
T1 construct: host or cells: CHO-K1
T1 sequence (P48546 22-466): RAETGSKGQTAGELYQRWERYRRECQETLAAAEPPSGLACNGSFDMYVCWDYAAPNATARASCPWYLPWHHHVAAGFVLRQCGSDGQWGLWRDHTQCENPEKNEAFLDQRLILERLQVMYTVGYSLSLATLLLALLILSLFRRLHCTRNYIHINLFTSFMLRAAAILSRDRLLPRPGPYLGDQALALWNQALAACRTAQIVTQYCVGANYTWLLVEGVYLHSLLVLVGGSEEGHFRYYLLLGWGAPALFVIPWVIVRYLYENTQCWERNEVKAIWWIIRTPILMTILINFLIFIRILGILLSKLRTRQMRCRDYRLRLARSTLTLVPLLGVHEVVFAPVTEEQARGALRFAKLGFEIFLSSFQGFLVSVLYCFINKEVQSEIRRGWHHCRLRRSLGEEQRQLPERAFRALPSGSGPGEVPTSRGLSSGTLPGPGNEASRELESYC
Assay: FACS binding assay
Summary of the method: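 CHO-K1 cells expressing human GIPR, washed in PBS/1% FCS, then stained with 1 μg/mL APC-streptavidin for 30 min on ice.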

[1] = pIC50 Category, competition with 20 nM GIP-057, 4° C., 1 hour
[2] = competition with 20 nM GIP-057, 4° C., 1 hour, read-out: pIC50 Category (converted)
[3] = competition with 20 nM GIP-057, 4° C. for 1 hour, read-out: pIC50 Category (converted)

SMILES: CC[C@H](C)[C@@H]1NC(=O)[C@H](CC(C)C)NC(=O)C2(CCOCC2)NC(=O)[C@@H](NC(=O)[C@@H](CC(C)C)NC(=O)[C@H](CCC(=O)O)NC(=O)[C@@H]2CCCN2C(=O)[C@H](Cc2c[nH]c3ccc(Cl)cc23)NC(=O)[C@H](Cc2c[nH]c3ccccc23)NC(=O)[C@H](CC(=O)O)NC(=O)CCC(=O)NCCCOCCOCCOCCCNC(=O)CN2CCN3CCN4CCN(CC2)CC(=O)[O][Lu]([O]C(=O)C3)[O]C(=O)C4)CSCc2cccc(c2)CSCCNC1=O [GIP-158, LuDOTA-Ttds-Asp-Trp-5Clw-Pro-Glu-leu-[Cys(3MeBn)-Thp-Leu-Ile-AET]] ({X13-Suc}-DW[Trp(5-Cl)]PE[dL]C[Thp]LI; linker 7-C via X7)
IC50 [1]: < 10 nM

SMILES: CC[C@H](C)[C@@H]1NC(=O)[C@H](CC(C)C)NC(=O)C2(CCOCC2)NC(=O)[C@@H](NC(=O)[C@@H](CC(C)C)NC(=O)[C@H](CCC(=O)O)NC(=O)[C@@H]2C[C@@H](NC(=O)CN3CCN(CC(=O)O)CCN(CC(=O)O)CCN(CC(=O)O)CC3)CN2C(=O)[C@H](Cc2c[nH]c3ccc(Cl)cc23)NC(=O)[C@H](Cc2ccccc2Cl)NC(=O)[C@H](CC(=O)O)NC(C)=O)CSCc2cccc(n2)CSC[C@@H](C(N)=O)NC1=O [GIP-390, Ac-Asp-Ocf-5Clw-Tap (DOTA)-Glu-leu-[Cys(2Lut)-Thp-Leu-Ile-Cys]-NH2] (Ac-D[Phe(2-Cl)][Trp(5-Cl)][Pro(trans-4-NH2)](DOTA)E[dL]C[Thp]LIC-NH2; linker 7-11 via Pyridine(2,6-diCH2))
IC50 [3]: 10 to 79.4 nM

SMILES: CC[C@H](C)[C@@H]1NC(=O)[C@H](CC(C)C)NC(=O)C2(CCOCC2)NC(=O)[C@@H](NC(=O)[C@@H](CC(C)C)NC(=O)[C@H](CCC(=O)O)NC(=O)[C@@H]2C[C@@H](O)CN2C(=O)[C@H](Cc2c[nH]c3ccc(Cl)cc23)NC(=O)[C@H](Cc2c[nH]c3ccccc23)NC(=O)CCC(=O)O)CSCc2cccc(n2)CSC[C@@H](C(=O)NC2CCN(CC(=O)N[C@@H](CCCCNC(=O)CN3CCN4CCN5CCN(CC3)CC(=O)[O][Lu]([O]C(=O)C4)[O]C(=O)C5)C(N)=O)CC2)NC1=O [GIP-170, HO-Succinyl-Trp-5Clw-Hyp-Glu-leu-[Cys(2Lut)-Thp-Leu-Ile-Cys]-APAc-Lys(LuDOTA)-NH2] (Suc-W[Trp(5-Cl)][Hyp]E[dL]C[Thp]LIC[X1]K(DOTA(Lu))-NH2; linker 6-10 via Pyridine(2,6-diCH2))
IC50 [1]: < 10 nM

SMILES: CC[C@H](C)[C@@H]1NC(=O)[C@H](CC(C)C)NC(=O)C(C)(C)NC(=O)[C@@H](NC(=O)[C@@H](CC(C)C)NC(=O)[C@H](CCC(=O)O)NC(=O)[C@@H]2CCCN2C(=O)[C@H](Cc2c[nH]c3ccccc23)NC(=O)[C@H](Cc2c[nH]c3ccccc23)NC(=O)[C@H](CC(=O)O)NC(=O)CCc2ccc(F)cc2)CSCc2cccc(c2)CSC[C@@H](C(=O)NCCCOCCOCCOCCCNC(=O)CCC(=O)N[C@@H](CCCCNC(=O)CN2CCN(CC(=O)O)CCN(CC(=O)O)CCN(CC(=O)O)CC2)C(N)=O)NC1=O [GIP-136, 4FPhp-Asp-Trp-Trp-Pro-Glu-leu-[Cys(3MeBn)-Aib-Leu-Ile-Cys]-Ttds-Lys(DOTA)-NH2] ({Propanoyl(3-(4-F-phenyl))}-DWWPE[dL]C[Aib]LIC-X5; linker 7-11 via mXylylene)
IC50 [2]: 10 to 79.4 nM

The next lines start with the values.

IC50 [2]: < 10 nM
SMILES: CC[C@H](C)[C@@H]1NC(=O)[C@H](CC(C)C)NC(=O)C(C)(C)NC(=O)[C@@H](NC(=O)[C@@H](CC(C)C)NC(=O)[C@H](CCC(=O)O)NC(=O)[C@@H]2CCCN2C(=O)[C@H](Cc2c[nH]c3ccc(Cl)cc23)NC(=O)[C@H](Cc2c[nH]c3ccccc23)NC(=O)[C@H](CC(=O)O)NC(=O)CCC(=O)NCCCOCCOCCOCCCNC(=O)CN2CCN(CC(=O)O)CCN(CC(=O)O)CCN(CC(=O)O)CC2)CNCc2cccc(c2)C[S+]([O-])CCNC1=O (stereo partly drawn) [GIP-098, DOTA-Ttds-Asp-Trp-5Clw-Pro-Glu-leu-[Dap(3MeBn)-Aib-Leu-Ile-AETO]]

IC50 [2]: < 10 nM
SMILES: CC[C@H](C)[C@@H]1NC(=O)[C@H](CC(C)C)NC(=O)C2(CCOCC2)NC(=O)[C@@H](NC(=O)[C@@H](CC(C)C)NC(=O)[C@H](CCC(=O)O)NC(=O)[C@@H]2CCCN2C(=O)[C@H](Cc2c[nH]c3ccc(Cl)cc23)NC(=O)[C@H](Cc2c[nH]c3ccccc23)NC(=O)CCC(=O)O)CSCc2cccc(c2)CSC[C@@H](C(N)=O)NC1=O [GIP-199] (Suc-W[Trp(5-Cl)]PE[dL]C[Thp]LIC-NH2; linker 6-10 via mXylylene)

IC50 [3]: 10 to 79.4 nM
SMILES: CC[C@H](C)[C@@H]1NC(=O)[C@H](CC(C)C)NC(=O)C2(CCOCC2)NC(=O)[C@@H](NC(=O)[C@@H](CC(C)C)NC(=O)[C@H](CCC(=O)O)NC(=O)[C@@H]2C[C@@H](O)CN2C(=O)[C@H](Cc2cccc(Cl)c2Cl)NC(=O)[C@H](Cc2c[nH]c3ccccc23)NC(=O)[C@H](CC(=O)O)NC(C)=O)CSCc2cccc(n2)CSC[C@@H](C(N)=O)NC1=O [GIP-265, Ac-Asp-Trp-Egp-Hyp-Glu-leu-[Cys(2Lut)-Thp-Leu-Ile-Cys]-NH2] (Ac-DW[X22][Hyp]E[dL]C[Thp]LIC-NH2; linker 7-11 via Pyridine(2,6-diCH2))
